± gives the uncertainty stated by the source.
Assay: xn = mol fraction of the nth substance listed

CCCCCO + CCCCCC[n+]1ccn(C)c1.[Cl-]
Settings | viscosity [mPa·s]
303.15 K, 101 kPa, x1 = 1 | 3.03 ± 0.06

CN1CCN(C)C1=O + CCCCCC[n+]1ccn(C)c1.[Cl-]
100 kPa
Settings | viscosity [mPa·s]
288.15 K, x2 = 0 | 2.368 ± 0.097
288.15 K, x2 = 0.1007 | 6.33 ± 0.28
303.15 K, x2 = 0.1999 | 9.99 ± 0.43
308.15 K, x2 = 0 | 1.616 ± 0.066
308.15 K, x2 = 0.1999 | 8.56 ± 0.36
308.15 K, x2 = 0.3856 | 44.3 ± 1.9
318.15 K, x2 = 0.6969 | 182 ± 10
323.15 K, x2 = 0.1007 | 2.8 ± 0.12
323.15 K, x2 = 0.2985 | 12.78 ± 0.53
323.15 K, x2 = 0.4985 | 45.7 ± 1.9
328.15 K, x2 = 0 | 1.195 ± 0.049
333.15 K, x2 = 0.2985 | 9.67 ± 0.4

CCCCCCCC[N+]1(C)CCCC1.O=S(=O)([N-]S(=O)(=O)C(F)(F)F)C(F)(F)F + CCCCOC(C)=O
298.15 K, 100 kPa
Settings | electrical conductivity [S/m] | viscosity [mPa·s]
x2 = 0.2414 | 0.145 ± 0.003 | –
x2 = 0.2589 | – | 51.3 ± 2.4
x2 = 0.6824 | 0.353 ± 0.007 | –
x2 = 0.7923 | 0.355 ± 0.007 | –
x2 = 0.8427 | 0.326 ± 0.007 | –

O=S(=O)([N-]S(=O)(=O)C(F)(F)F)C(F)(F)F.[Li+] + CCCC[N+]1(C)CCCC1.O=S(=O)([N-]S(=O)(=O)C(F)(F)F)C(F)(F)F
100 kPa, x1 = 0.24
Settings | electrical conductivity [S/m]
277.9 K | 0.007 ± 0.001
283.4 K | 0.016 ± 0.001
298 K | 0.062 ± 0.004
346.4 K | 0.429 ± 0.026

O=S(=O)([N-]S(=O)(=O)C(F)(F)F)C(F)(F)F.[Li+] + CCCC[N+]1(C)CCCC1.O=S(=O)([N-]S(=O)(=O)C(F)(F)F)C(F)(F)F + O
viscosity [mPa·s], 100 kPa
Settings | 293.15 K | 298.15 K | 303.15 K | 313.15 K | 323.15 K | 333.15 K | 343.15 K | 353.15 K | 363.15 K
x1 = 0.2745, x2 = 0.2745 | 117 ± 12 | 85.1 ± 8.7 | 66.1 ± 6.7 | 43 ± 4.3 | 29.5 ± 3 | 20.8 ± 2.1 | 15.8 ± 1.6 | 11.9 ± 1.2 | 9.38 ± 0.94
x1 = 0.3106, x2 = 0.2745 | 144 ± 15 | 110 ± 11 | 85.8 ± 8.7 | 52.2 ± 5.3 | 34.6 ± 3.5 | 24.4 ± 2.5 | 17.9 ± 1.8 | 13.6 ± 1.4 | 10.6 ± 1.1
x1 = 0.3509, x2 = 0.2745 | 242 ± 27 | 179 ± 19 | 135 ± 14 | 82.5 ± 8.4 | 49.1 ± 5 | 33.5 ± 3.4 | 23.9 ± 2.4 | 17.7 ± 1.8 | 13.6 ± 1.4
x1 = 0.3868, x2 = 0.2745 | 437 ± 53 | 334 ± 39 | 246 ± 28 | 141 ± 15 | 87.5 ± 8.9 | 52.3 ± 5.3 | 35.9 ± 3.6 | 25.8 ± 2.6 | 19.3 ± 1.9
x1 = 0.4308, x2 = 0.2745 | 599 ± 76 | 421 ± 51 | 304 ± 35 | 171 ± 18 | 104 ± 11 | 62.1 ± 6.3 | 42 ± 4.2 | 29.9 ± 3 | 21.5 ± 2.2

O=C(O)CC(O)(CC(=O)O)C(=O)O + CCCC[N+](CCCC)(CCCC)CCCC.[Cl-] + O
100 kPa, x2 = 0.1428, x1 = 0.1428
Settings | electrical conductivity [S/m] | viscosity [mPa·s]
293.15 K | 0.0384 ± 0.0039 | 620 ± 200
303.15 K | 0.0639 ± 0.0064 | 380 ± 100
313.15 K | 0.103 ± 0.01 | 245 ± 51
323.15 K | 0.161 ± 0.016 | 161 ± 25
333.15 K | 0.245 ± 0.024 | 108 ± 11

NC(=O)C[C@H](N)C(=O)O + CCCC[N+](CCCC)(CCCC)Cc1ccccc1.[Cl-] + O
electrical conductivity [S/m], 100 kPa, frequency 0.001 MHz
Settings | 293.15 K | 298.15 K | 303.15 K | 308.15 K | 313.15 K
x1 = 0.0001802, x2 = 1.802e-05 | 0.0457 ± 0.0042 | 0.0482 ± 0.0042 | 0.0503 ± 0.0042 | 0.052 ± 0.0042 | 0.0553 ± 0.0042
x1 = 0.0001803, x2 = 5.405e-05 | 0.0516 ± 0.0042 | 0.0545 ± 0.0042 | 0.0572 ± 0.0042 | 0.0607 ± 0.0042 | 0.0639 ± 0.0042
x1 = 0.0001804, x2 = 9.008e-05 | 0.0589 ± 0.0042 | 0.066 ± 0.0042 | 0.0748 ± 0.0042 | 0.0813 ± 0.0042 | 0.0899 ± 0.0042
x1 = 0.0004504, x2 = 1.801e-05 | 0.0517 ± 0.0042 | 0.0574 ± 0.0042 | 0.059 ± 0.0042 | 0.0615 ± 0.0042 | 0.0657 ± 0.0042
x1 = 0.0004507, x2 = 5.403e-05 | 0.0603 ± 0.0042 | 0.0634 ± 0.0042 | 0.0663 ± 0.0042 | 0.0714 ± 0.0042 | 0.0753 ± 0.0042
x1 = 0.000451, x2 = 9.005e-05 | 0.0728 ± 0.0042 | 0.0771 ± 0.0042 | 0.0832 ± 0.0042 | 0.0889 ± 0.0042 | 0.0937 ± 0.0042
x1 = 0.0007205, x2 = 1.801e-05 | 0.057 ± 0.0042 | 0.0653 ± 0.0042 | 0.0683 ± 0.0042 | 0.0709 ± 0.0042 | 0.0773 ± 0.0042
x1 = 0.0007209, x2 = 5.402e-05 | 0.0678 ± 0.0042 | 0.072 ± 0.0042 | 0.0765 ± 0.0042 | 0.0809 ± 0.0042 | 0.0884 ± 0.0042
x1 = 0.0007213, x2 = 9.003e-05 | 0.0805 ± 0.0042 | 0.087 ± 0.0042 | 0.0917 ± 0.0042 | 0.0967 ± 0.0042 | 0.104 ± 0.0042
x1 = 0.0009904, x2 = 1.8e-05 | 0.0635 ± 0.0042 | 0.0749 ± 0.0042 | 0.0776 ± 0.0042 | 0.0796 ± 0.0042 | 0.0859 ± 0.0042
x1 = 0.000991, x2 = 5.4e-05 | 0.0716 ± 0.0042 | 0.0812 ± 0.0042 | 0.0854 ± 0.0042 | 0.0913 ± 0.0042 | 0.0954 ± 0.0042
x1 = 0.0009916, x2 = 9e-05 | 0.0886 ± 0.0042 | 0.0965 ± 0.0042 | 0.102 ± 0.0042 | 0.104 ± 0.0042 | 0.111 ± 0.0042
x1 = 0.00126, x2 = 1.8e-05 | 0.0698 ± 0.0042 | 0.0826 ± 0.0042 | 0.0859 ± 0.0042 | 0.0888 ± 0.0042 | 0.0951 ± 0.0042
x1 = 0.001261, x2 = 5.399e-05 | 0.0783 ± 0.0042 | 0.0903 ± 0.0042 | 0.0935 ± 0.0042 | 0.0999 ± 0.0042 | 0.113 ± 0.0042
x1 = 0.001262, x2 = 8.998e-05 | 0.102 ± 0.0042 | 0.105 ± 0.0042 | 0.108 ± 0.0042 | 0.112 ± 0.0042 | 0.127 ± 0.0042
x1 = 0.00153, x2 = 1.799e-05 | 0.086 ± 0.0042 | 0.092 ± 0.0042 | 0.0943 ± 0.0042 | 0.0983 ± 0.0042 | 0.11 ± 0.0042
x1 = 0.001531, x2 = 5.397e-05 | 0.0934 ± 0.0042 | 0.0997 ± 0.0042 | 0.105 ± 0.0042 | 0.108 ± 0.0042 | 0.115 ± 0.0042
x1 = 0.001532, x2 = 8.995e-05 | 0.107 ± 0.0042 | 0.111 ± 0.0042 | 0.116 ± 0.0042 | 0.121 ± 0.0042 | 0.138 ± 0.0042

viscosity [mPa·s], 100 kPa
Settings | 293.15 K | 298.15 K | 303.15 K | 308.15 K | 313.15 K
x1 = 0.0001802, x2 = 1.802e-05 | 0.959 ± 0.045 | 0.919 ± 0.045 | 0.882 ± 0.045 | – | –
x1 = 0.0001803, x2 = 5.405e-05 | 0.967 ± 0.045 | 0.926 ± 0.045 | 0.885 ± 0.045 | – | –
x1 = 0.0001804, x2 = 9.008e-05 | 0.978 ± 0.045 | 0.935 ± 0.045 | 0.898 ± 0.045 | – | –
x1 = 0.0004504, x2 = 1.801e-05 | 0.965 ± 0.045 | 0.925 ± 0.045 | 0.888 ± 0.045 | 0.851 ± 0.045 | 0.798 ± 0.045
x1 = 0.0004507, x2 = 5.403e-05 | 0.974 ± 0.045 | 0.932 ± 0.045 | 0.892 ± 0.045 | 0.858 ± 0.045 | 0.802 ± 0.045
x1 = 0.000451, x2 = 9.005e-05 | 0.985 ± 0.045 | 0.941 ± 0.045 | 0.904 ± 0.045 | 0.862 ± 0.045 | 0.81 ± 0.045
x1 = 0.0007205, x2 = 1.801e-05 | 0.97 ± 0.045 | 0.931 ± 0.045 | 0.894 ± 0.045 | 0.857 ± 0.045 | 0.804 ± 0.045
x1 = 0.0007209, x2 = 5.402e-05 | 0.98 ± 0.045 | 0.938 ± 0.045 | 0.898 ± 0.045 | 0.864 ± 0.045 | 0.809 ± 0.045
x1 = 0.0007213, x2 = 9.003e-05 | 0.992 ± 0.045 | 0.947 ± 0.045 | 0.91 ± 0.045 | 0.868 ± 0.045 | 0.817 ± 0.045
x1 = 0.0009904, x2 = 1.8e-05 | 0.975 ± 0.045 | 0.936 ± 0.045 | 0.899 ± 0.045 | 0.863 ± 0.045 | 0.81 ± 0.045
x1 = 0.000991, x2 = 5.4e-05 | 0.985 ± 0.045 | 0.943 ± 0.045 | 0.904 ± 0.045 | 0.87 ± 0.045 | 0.815 ± 0.045
x1 = 0.0009916, x2 = 9e-05 | 0.997 ± 0.045 | 0.952 ± 0.045 | 0.916 ± 0.045 | 0.874 ± 0.045 | 0.825 ± 0.045
x1 = 0.00126, x2 = 1.8e-05 | 0.98 ± 0.045 | 0.941 ± 0.045 | 0.905 ± 0.045 | 0.869 ± 0.045 | 0.817 ± 0.045
x1 = 0.001261, x2 = 5.399e-05 | 0.99 ± 0.045 | 0.948 ± 0.045 | 0.909 ± 0.045 | 0.877 ± 0.045 | 0.822 ± 0.045
x1 = 0.001262, x2 = 8.998e-05 | 1.003 ± 0.045 | 0.958 ± 0.045 | 0.922 ± 0.045 | 0.88 ± 0.045 | 0.831 ± 0.045
x1 = 0.00153, x2 = 1.799e-05 | 0.984 ± 0.045 | 0.946 ± 0.045 | 0.91 ± 0.045 | 0.875 ± 0.045 | 0.823 ± 0.045
x1 = 0.001531, x2 = 5.397e-05 | 0.995 ± 0.045 | 0.954 ± 0.045 | 0.915 ± 0.045 | 0.883 ± 0.045 | 0.829 ± 0.045
x1 = 0.001532, x2 = 8.995e-05 | 1.008 ± 0.045 | 0.964 ± 0.045 | 0.929 ± 0.045 | 0.887 ± 0.045 | 0.839 ± 0.045

CCC(=O)CC + CCCC[n+]1ccn(C)c1.F[P-](F)(F)(F)(F)F
298.15 K, 101.3 kPa
Settings | viscosity [mPa·s]
x1 = 0.1927 | 81.4 ± 3.9
x1 = 0.3014 | 42.7 ± 1.3
x1 = 0.5009 | 13.36 ± 0.34
x1 = 0.652 | 5.36 ± 0.14

CCCCCO + CCCC[n+]1ccn(C)c1.N#C[S-]
Settings | viscosity [mPa·s]
298.15 K, 101 kPa, x1 = 1 | 3.37 ± 0.01

— the CheMixHub ionic liquid set
